Measurements from the NIST ThermoML archive (doi:10.1021/acs.jced.9b00152).

Assays:
[1] = Liquid, Ebulliometric method (Recirculating still)
[2] = Boiling temperature at pressure P; settings: Liquid, Ebulliometric method (Recirculating still)

CC(=O)OC(C)C [1-methylethyl ethanoate]
[1]
Settings | vapor or sublimation pressure [kPa]
317.77 K | 20
334.75 K | 40
345.94 K | 60
354.29 K | 80
361.79 K | 101.3

CC(=O)O [acetic acid]
Settings | Boiling temperature at pressure P [°C] | vapor or sublimation pressure [kPa]
[1], 345.03 K | – | 20
[1], 363.04 K | – | 40
[1], 374.54 K | – | 60
[1], 383.32 K | – | 80
[1], 390.93 K | – | 101.3
[2], 17 kPa | 68.2 | –
[2], 18.47 kPa | 69.72 | –
[2], 20.01 kPa | 71.88 | –
[2], 21.29 kPa | 73.26 | –
[2], 23.18 kPa | 75.34 | –
[2], 24.92 kPa | 77.20 | –
[2], 27.44 kPa | 79.73 | –
[2], 29.78 kPa | 81.86 | –
[2], 32.78 kPa | 84.39 | –
[2], 34.97 kPa | 86.11 | –
[2], 39.99 kPa | 89.89 | –
[2], 48.99 kPa | 95.41 | –
[2], 55.76 kPa | 99.12 | –
[2], 60.04 kPa | 101.39 | –
[2], 64.44 kPa | 103.51 | –
[2], 69.39 kPa | 105.90 | –
[2], 75.23 kPa | 108.5 | –
[2], 79.98 kPa | 110.17 | –
[2], 83.66 kPa | 111.67 | –
[2], 87.18 kPa | 112.92 | –
[2], 97.08 kPa | 116.43 | –
[2], 101.3 kPa | 117.78 | –

CCCOC(C)=O [propyl ethanoate]
Settings | Boiling temperature at pressure P [°C] | vapor or sublimation pressure [kPa]
[1], 329.58 K | – | 20
[1], 347.21 K | – | 40
[1], 358.6 K | – | 60
[1], 367.13 K | – | 80
[1], 374.66 K | – | 101.3
[2], 14.9 kPa | 49.47 | –
[2], 16.6 kPa | 51.86 | –
[2], 18.56 kPa | 54.62 | –
[2], 20 kPa | 56.43 | –
[2], 24.75 kPa | 61.56 | –
[2], 27.99 kPa | 64.63 | –
[2], 33.06 kPa | 68.81 | –
[2], 37.76 kPa | 72.40 | –
[2], 40.07 kPa | 74.06 | –
[2], 44.38 kPa | 76.90 | –
[2], 48.69 kPa | 79.58 | –
[2], 54.33 kPa | 82.51 | –
[2], 60.03 kPa | 85.5 | –
[2], 66.87 kPa | 88.7 | –
[2], 73.94 kPa | 91.7 | –
[2], 79.95 kPa | 93.98 | –
[2], 85.25 kPa | 95.92 | –
[2], 91.51 kPa | 98.26 | –
[2], 101.26 kPa | 101.51 | –
